Experimental data published in US8067442B2, “Heterocyclic antiviral compounds” (Roche Palo Alto LLC, priority 2008, dated 2011).

How the values were obtained:
[1] = test system: HCV replicon cells (2209-23), genotype 1b replicon in human hepatoma Huh7 cells; test: HCV replicon assay (Renilla luciferase reporter); format: cell-based, HCV genotype 1b; settings: Hepatitis C virus, Huh-7, 72 h; 2209-23 cells, three days incubation
in vitro = settings: human
HCV = settings: cited from earlier work
[2] = molecular target: T1, HCV polymerase (NS5B570n-Con1) (Hepatitis C virus genotype 1b, UniProt Q9WMX2); test: biochemical; parameters: species or system HCV Con1 strain
T1 construct: a 21 amino acid C-terminal deletion of full-length HCV polymerase; made in house; host or cells: E. coli BL21(DE3) pLysS, plasmid pET17b

SMILES | IC50 [1] [nM] | CC50 (in vitro) [nM] | melting point [°C] | serum levels of HCV-RNA (HCV; monotherapy / sole treatment) | patients in whom serum amino transferase levels are reduced to normal (HCV; monotherapy) [%] | IC50 [2] [nM]
CC(C)(C)c1cc(-c2ccc[nH]c2=O)cc2c(-c3ccc(N)cc3)coc12 [Compound I-86] | 346 | 29200 | 248 to 250 | – | – | –
NC(=O)c1ncn([C@@H]2O[C@H](CO)[C@@H](O)[C@H]2O)n1 [ribavirin, 1-((2R,3R,4S,5R)-3,4-Dihydroxy-5-hydroxymethyl-tetrahydro-furan-2-yl)-1H-[1,2,4]triazole-3-carboxylic acid amide] | – | – | – | does not lower | 40 | –
CC(C)(C)c1cc(-c2ccc[nH]c2=O)cc2c(-c3cccc(C(N)=O)c3)coc12 [Compound I-78, 3-[7-tert-Butyl-5-(2-oxo-1,2-dihydro-pyridin-3-yl)-benzofuran-3-yl]-benzamide] | 78 | 12400 | 190 to 193 | – | – | 9
CC(C)(C)c1cc(-c2ccc[nH]c2=O)cc2c(C(=O)N3CCC[C@H](CNS(C)(=O)=O)C3)coc12 [Compound I-100] | 14 | – | – | – | – | 8
CC(C)(C)c1cc(-c2ccc[nH]c2=O)cc2c(C(=O)N3CCC[C@@H](N)C3)coc12 [Compound I-42] | – | – | 254.9 to 258.1 | – | – | 549
CC(C)(C)c1cc(-c2ccc[nH]c2=O)cc2c(-c3ccc(CN(CCO)S(C)(=O)=O)cc3)coc12 [Compound I-76, N-{4-[7-tert-Butyl-5-(2-oxo-1,2-dihydro-pyridin-3-yl)-benzofuran-3-yl]-benzyl}-N-(2-hydroxy-ethyl)-methanesulfonamide] | – | – | 222 to 224 | – | – | 35
CC(C)(C)c1cc(-c2ccc[nH]c2=O)cc2c(C(=O)N3CC[C@H](CNS(=O)(=O)C4CC4)C3)coc12 [Compound I-107] | – | – | 158 to 160 | – | – | 17
CN(C[C@H]1CCN(C(=O)c2coc3c(C(C)(C)C)cc(-c4ccc[nH]c4=O)cc23)C1)S(C)(=O)=O [Compound I-105, N-{(S)-1-[7-tert-Butyl-5-(2-oxo-1,2-dihydro-pyridin-3-yl)-benzofuran-3-carbonyl]-pyrrolidin-3-ylmethyl}-N-methyl-methanesulfonamide] | – | – | 155 to 157 | – | – | 25
CC(C)(C)c1cc(-c2ccc[nH]c2=O)cc2c(C(=O)N3CCCC(CNS(C)(=O)=O)C3)csc12 (stereo not drawn) [Compound 114, N-{1-[7-tert-Butyl-5-(2-oxo-1,2-dihydro-pyridin-3-yl)-benzo[b]thiophene-3-carbonyl]-piperidin-3-ylmethyl}-methanesulfonamide] | – | – | 175 to 177 | – | – | 3
